Article PMC6037046, “Structural insights into Plasmodium falciparum nicotinamide mononucleotide adenylyltransferase: oligomeric assembly” (Memórias do Instituto Oswaldo Cruz, 2018)

Columns and labels:
[1] = target: 6 x His-Plasmodium falciparum nicotinamide mononucleotide adenylyltransferase (PfNMNAT) recombinant protein (Plasmodium falciparum (FCB2 strain gDNA; ORF identified in strain 3D7)) (UniProt Q8IE38); assay: native gel or EMSA; native PAGE of IMAC eluate (four gels of 6, 8, 10, 12 %T) with Ferguson plot (-Log Kr vs Log MW) against standard proteins
6 x His-PfNMNAT = target: T1, 6 x His-PfNMNAT (Plasmodium falciparum, UniProt Q8IE38); assay: RP-HPLC of NAD formed (direct assay); also ADH-coupled assay at […] nm; format: biochemical; settings: 1.25 mM NMN, 1.25 mM ATP, 10 mM MgCl2, 25 mM HEPES/KOH pH 7.4, 37 C
T1 construct: gene PF3D7_1327600; full ORF in pET100/D-TOPO, N-terminal 6xHis tag kept, E. coli Codon Plus (DE3) RIL, ~28 kDa
T1 sequence (Q8IE38 1-204): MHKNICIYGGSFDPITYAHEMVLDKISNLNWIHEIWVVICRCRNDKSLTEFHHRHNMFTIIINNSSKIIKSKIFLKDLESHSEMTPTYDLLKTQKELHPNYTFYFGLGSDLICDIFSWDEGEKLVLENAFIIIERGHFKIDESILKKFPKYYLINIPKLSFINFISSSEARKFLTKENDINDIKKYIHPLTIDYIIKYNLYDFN

| Compound | stoichiometry N [1] | RP-HPLC of NAD formed (direct assay); also ADH-coupled assay at 340 nm (6 x His-PfNMNAT) |
| --- | --- | --- |
| 6 x His-Plasmodium falciparum nicotinamide mononucleotide adenylyltransferase (PfNMNAT) recombinant protein (from UniProt Q8IE38 1-204) (enzyme) | 2 | – |
| Nc1ncnc2c1ncn2[C@@H]1O[C@H](COP(=O)(O)OP(=O)(O)OP(=O)(O)O)[C@@H](O)[C@H]1O [ATP] | – | direct enzymatic assays that measured NAD synthesis from NMN and ATP |
| NC(=O)c1ccc[n+]([C@@H]2O[C@H](COP(=O)(O)O)[C@@H](O)[C@H]2O)c1 [NMN, nicotinamide mononucleotide] | – | direct enzymatic assays that measured NAD synthesis from NMN and ATP |
